{
  "source": "patent US9624491B2",
  "about": "“Methods and compositions for the detection and treatment of cancer involving miRNAs and miRNA inhibitors and targets” (Memorial Sloan Kettering Cancer Center, priority 2010, dated 2017)",
  "key": {"[1]": {"tested_on": "NOTCH1-induced T-ALL", "experiment": "Mouse model of Notch-ICN (NOTCH1)-induced T-ALL, adoptive transfer of transduced HPCs", "format": "in vivo", "conditions": "HPCs expressing NOTCH1-ICN plus miRNA or shRNA transplanted into irradiated recipients", "method": "Can miR-19 drive the development of lymphatic malignancies in vivo? Based on the miR-19 expression and translocation data, miR-19 was assessed in a mouse model of T-ALL (Pear, et al., 1996). Briefly, most cases of T-ALL carry mutations in the Notch1 gene, and, like the […] translocation, these generate the constitutively active intracellular domain of NOTCH1 (Notch-ICN) (Weng, et al., 2004). To test miR-19's ability to promote Notch-ICN-induced T-ALL in vivo, HPCs were adoptively transferred into irradiated recipients (FIG. 3d). […] At the same time, 80% of the mice receiving HPCs expressing only Notch-ICN remained disease free (p=0.0003) (FIG. 3e).\nThe mouse models of Notch1-induced T-ALL and the EμMyc lymphoma based on adoptive transfer of retrovirally transduced HPCs have been reported (Pear, et al., 1996), (Wendel, et al., 2004). Data were analyzed in Kaplan-Meier format using the log-rank (Mantel-Cox) test for statistical significance. The p53 loss of heterozygosity polymerase chain reaction (LOH PCR) and immunophenotyping by surface marker analysis were as described (Wendel, et al., 2004).\nA murine model of NOTCH1-induced T-ALL was used to directly test the oncogenic potential of the most promising miRNAs in vivo. Briefly, HPCs were transduced with NOTCH1 together with either empty vector or an miRNA and transplanted into irradiated, syngeneic recipients. Animals were monitored for leukemia onset by regular blood counts (FIG. 22a). […] Typically, animals receiving HPCs transduced with these miRNAs develop an acute leukemia by 75 days, while >80% of vector controls or animals receiving miR-30 (n=5, p=0.15) remain disease free at this time (FIG. 22b). Based on the in vitro screen and prediction, additional miRNAs were tested. […] Thus, miR-19b, miR-20a, miR-26a, miR-223 and also the less abundant miR-27a and miR-148/152 behave as oncogenes in a murine T-ALL model.\nThe mouse T-ALL model has been reported (Pear, et al., 1996), (Wendel, et al., 2004). Data were analyzed in Kaplan-Meier format using the log-rank (Mantel-Cox) test for statistical significance. […]"}, "[2]": {"tested_on": "PTEN, BCL2L11, PHF6, IKZF1, NF1, FBXW7", "experiment": "3′UTR reporter, quantitative PCR and immunoblot assays of tumor suppressor genes in murine leukemias", "format": "cell-based", "conditions": "murine T-ALLs expressing NOTCH1 and miRNA, mRNA, protein", "method": "Immunoblots of whole cell lysates were performed as described (Wendel, et al., 2004). Antibodies were against Bim/Bcl2l11 (AAP-330, 1:1000, Assay Designs), Nf1 (sc67, 1:100, Santa Cruz), Cdc4/Fbxw7 (ab7405, 1:500, Abeam), Ikzf1 (sc-13039, 1:500, Santa Cruz), Phf6 (NB100-79861, 1:1000, Novus Biologicals), Pten (9559, 1:1000, Cell Signaling), tubulin (1:5000; Sigma, B-5-1-2) and actin (1:5000; Sigma, AC-15).\nTotal RNA and miRNA-enriched RNA was extracted using the Allprep DNA/RNA/Protein and miRNeasy Mini kits. Pathological diagnosis was by expert hematopathologists at Weill Cornell Medical Center. cDNA synthesis, PCR and analysis by the ΔΔ Ct method were as described (Mavrakis, et al., 2008) and utilized Taqman Gene Expression Assays: Bcl2l11 (Mm00437796_m1), BCL2L11 (Hs00197982_m1), Pten (Mm01212532_m1), PTEN (Hs02621230_s1), Nf1 (Mm00812430_m1), NF1 (Hs01035104_m1), Ikzf1 (Mm01187878_m1), IKZF1 (Hs00172991_m1), Fbxw7 (Mm00504452_m1), FBXW7 (Hs00217794_m1), Phf6 (Mm00804415_m1), and Mouse GAPD (GAPDH) (4352932, Applied Biosystems). Expression was normalized to RNU6B (001093, Applied Biosystems).\nThe mouse FBXW7 (bp 2793-4139; acc. no. NM_001177773), human NF1 (bp 10033-10666; acc. no NM_000267), human PHF6 (bp position 3271-4299; acc. no. NM_001015877) and Bim (bp. 3155-4773; acc. no. NM_009754) 3′UTR fragments were generated by PCR and cloned into the psi-CHECK-2 vector (Promega) with the exception of the IKZF1 3′UTR, which was purchased from Genecopoeia (cat no. HmiT000397b, by 2343-4471 of UTR). The assays were performed as described (Xiao, et al., 2008)."}},
  "data": [
    {"substance": "miR-148: miRNA, UCAGUGCACUACAGAACUUUGU (SEQ ID NO: 8) (expressed or natural sequence; listed as Homo sapiens)", "values": [
      {"measurement": "leukemia onset / leukemia-free survival", "setting": "[1]", "result": "significant disease acceleration"},
      {"measurement": "regulation of tumor suppressor genes", "setting": "[2]", "result": "regulate IKZF1, NF1 and FBXW7"}
    ]}
  ]
}
